Data taken from PMC6348381, “Discovery of an MLLT1/3 YEATS Domain Chemical Probe” (Angewandte Chemie (International Ed. in English), 2018).

Assays:
TAF1 = TAF1 (Homo sapiens, UniProt P21675); assay: AlphaScreen selectivity screen, TAF1; format: binding
MLLT3 = target: T1, MLLT3 (Homo sapiens, UniProt P42568); assay: NanoBRET assay, full-length MLLT3-NanoLuc / histone H3.3-HaloTag in HEK293 cells; format: cell-based; settings: 24 h
T1 construct: in full length MLLT3 N-terminal NanoLuc, Histone; host or cells: HEK293
T1 sequence (P42568 1-568): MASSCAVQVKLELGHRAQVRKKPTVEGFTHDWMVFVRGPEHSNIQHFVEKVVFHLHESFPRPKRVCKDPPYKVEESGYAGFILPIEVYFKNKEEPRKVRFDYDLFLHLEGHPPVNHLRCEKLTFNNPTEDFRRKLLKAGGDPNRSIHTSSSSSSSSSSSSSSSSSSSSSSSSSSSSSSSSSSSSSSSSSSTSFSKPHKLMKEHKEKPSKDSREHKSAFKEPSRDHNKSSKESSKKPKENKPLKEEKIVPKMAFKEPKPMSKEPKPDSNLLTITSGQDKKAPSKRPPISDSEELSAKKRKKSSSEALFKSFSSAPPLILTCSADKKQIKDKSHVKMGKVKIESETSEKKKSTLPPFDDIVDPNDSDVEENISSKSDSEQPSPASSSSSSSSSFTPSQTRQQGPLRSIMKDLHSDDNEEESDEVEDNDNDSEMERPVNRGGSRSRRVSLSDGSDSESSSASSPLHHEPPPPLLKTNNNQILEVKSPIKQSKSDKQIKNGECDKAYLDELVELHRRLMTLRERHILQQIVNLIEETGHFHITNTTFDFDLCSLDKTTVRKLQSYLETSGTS
Description: II.V NanoLuciferase Bioluminescent Resonance Energy Transfer (NanoBRET) Assay[2]
HEK293 cells ([…]) were plated in each well of a 6-well plate after 6 h cells were co-transfected with Histone H3.3-HaloTag (NM_002107) and a NanoLuciferase fusion of MLLT1 or MLLT3 (WT sequences from Promega HaloTag® human ORF in pFN21A) at a 1:500 and 1:10 (NanoLuc® to HaloTag®) ratio respectively with FuGENE HD transfection regent. Sixteen hours post-transfection, cells were collected and exchanged into media containing phenol red-free DMEM and 4% FBS in the absence (control sample) or the presence (experimental sample) of 100 nM NanoBRET 618 fluorescent ligand (Promega).
Cell density was adjusted to 2 x 10^5 cells/mL and then seeded 100 µL/well in a white 96-well plate (Corning Costar #3917). Compounds were then added directly to media (in the presence of SAHA 2.5 µM) at final concentrations 0.01-30 μM or an equivalent amount of DMSO as a vehicle control, and the plates were incubated for 24 h at 37 °C in the presence […]
NanoBRET Nano-Glo substrate (Promega) was added to both control and experimental samples at a final concentration of 10 µM. Readings were performed within 5 minutes using a ClarioSTAR (BMG labtech) equipped with LP 480 and 610 nm filters. A corrected BRET ratio was calculated and is defined as the ratio of the emission at 610 nm/[…] for experimental samples minus the emission at 6 10 nm/640 nm for control samples (not incubated with NanoBRET fluorescent ligand). BRET ratios are expressed as milliBRET units (mBU), where 1 mBU corresponds to the corrected BRET ratio multiplied by 1000.
3.3 C-terminal HaloTag in HEK293 cells. Treatment with SAHA (2.5 µM) alone increases MLLT3- […]
dependent manner. Mean±SD of BRET ratio (mBU), n=4 technical replicates.
(also on this page, place not known: 5) -well H3.3 -HaloTag pFN21A ) ( NanoLuc® H aloTag®) post -transfection, red -free Nano -Glo 10 5 6 10 6 10 l igand). cells . […]

CECR2 = CECR2 (Homo sapiens, UniProt Q9BXF3); assay: AlphaScreen selectivity screen, CECR2; format: binding
Sequence of CECR2 (Q9BXF3 434-538 limits assumed): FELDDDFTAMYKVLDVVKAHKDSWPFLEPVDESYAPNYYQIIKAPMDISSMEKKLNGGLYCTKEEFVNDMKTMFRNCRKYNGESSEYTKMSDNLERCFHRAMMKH
Source text: (§1) IC50 (µM) IC50 (µM) IC50 (µM) IC50 (µM) (µM) (µM) (µM)
(§2) Supplementary Table 1. […]

YEATS4 = target: T2, YEATS4 (Homo sapiens, UniProt O95619); assay: AlphaScreen selectivity screen, YEATS4; format: binding
T2 construct: made in house; host or cells: E. coli Rosetta
T2 sequence (O95619 15-158 limits assumed): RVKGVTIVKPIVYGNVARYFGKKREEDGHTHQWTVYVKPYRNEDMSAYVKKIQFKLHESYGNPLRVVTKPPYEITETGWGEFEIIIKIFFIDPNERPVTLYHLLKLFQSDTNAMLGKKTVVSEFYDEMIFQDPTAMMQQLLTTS
Source text: as §1, §2

CBP = target: T3, CBP (Homo sapiens, UniProt Q92793); assay: AlphaScreen selectivity screen, CBP; format: binding
T3 construct: made in house
T3 sequence (Q92793 1085-1192 limits assumed): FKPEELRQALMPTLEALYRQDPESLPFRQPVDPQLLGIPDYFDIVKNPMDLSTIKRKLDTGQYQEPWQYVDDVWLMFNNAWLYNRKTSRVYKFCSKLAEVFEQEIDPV
Source text: as §1, §2

MV4;11 AML cells = assay: qPCR gene expression in MV4;11 cells; format: cell-based, human; settings: 1 μM, 72 h
Description: II.XII Analysis of gene expression by quantitative polymerase chain reaction (qPCR) […]
MV4;11 cells were cultured at 37 °C in a humidified 5% CO2 atmosphere in RPMI medium containing 10% FBS and 1% L-glutamine. Cells were seeded at a density of 2 x 10^6 cells/well in 6 well plates pre-coated in polyhema, to enable suspension culture. Cells were […]
and washing with PBS, RNA was extracted from cells using RNeasy Mini Kit (Qiagen), following the manufacturer’s protocol. Total RNA was quantified by Nanodrop and 500 ng of RNA was converted to cDNA using GoScript Reverse Transcription System (Promega). The final cDNA products were quantified by QPCR using FAM dye-labelled Taqman primers and probe sets (see table below). Data was analysed using the comparative cycle threshold (CT) method where CT values were normalised by subtracting that from an endogenous housekeeping gene (VIC dye-labelled ACTB). The gene expression levels from compound-treated cells are presented as relative to those of DMSO treated control cells. Statistical analyses were carried out using two-way ANOVA (GraphPad Prism 7).
ACTB (Beta Actin) Endogenous Control 4326315E
Supplementary Table 4. Taqman Gene Expression Assays (Life Technologies). Taqman MGB probes have 5’ FAM reporter dye (or VIC) and 3’ non-fluorescent quencher. […]

[1] = Metabolic stability in primary human hepatocytes; format: in vitro ADME
Description: page 98: II.IX in vitro Metabolism Studies Metabolic stability studies were carried out exposing nominated compounds to samples of primary human hepatocytes . Compounds were analysed by LC -MS for loss of parent compound at 0, 10, 30, 60 and 120-minute time points and analysis of metabolites formed . […] 1000000 500000 0 0 min 10 min 30 min 60 min 120 min Supplementary Figure 8.

Sequence of TAF1 (P21675 1522-1656): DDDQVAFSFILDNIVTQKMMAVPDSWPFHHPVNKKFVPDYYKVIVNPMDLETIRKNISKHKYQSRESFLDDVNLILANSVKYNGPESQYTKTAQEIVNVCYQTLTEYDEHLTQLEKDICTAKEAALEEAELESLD

C[C@H]1CCCN1Cc1nc2cc(NC(=O)c3ccc4c(cnn4C)c3)ccc2[nH]1 [Compound 92]
inhibition of TAF1 (TAF1; 10 μM using AS): no inhibition
IC50 (TAF1; AlphaScreen selectivity screen): > 10 µM
IC50 (MLLT3; in the presence of 2.5 μM SAHA): 0.4 ± 0.08 µM
MLLT3-Histone 3.3 interaction (mBU) (MLLT3; representative assay): can reduce this interaction
inhibition of CECR2 (CECR2; 10 μM using AS): no inhibition
IC50 (CECR2; AlphaScreen selectivity screen, read-out: CECR2 (2) IC50): > 10 µM
IC50 (YEATS4): > 10 µM
inhibition of CBP (CBP; 10 μM using AS): no inhibition
IC50 (CBP; AlphaScreen selectivity screen): > 10 µM
gene expression of MYC, MPO, DDN, CTSG, CD86 (qPCR) (MV4;11 AML cells): changed gene expression of 3/5 genes
CD86 gene expression (qPCR) (MV4;11 AML cells; compared to DMSO): increase
DDN gene expression (qPCR) (MV4;11 AML cells; compared to DMSO): reduction
MYC gene expression (qPCR) (MV4;11 AML cells; compared to DMSO): reduction
parent remaining after 60 min ([1]; 60 min): 48%
half-life ([1]; human, read-out: metabolic stability t1/2): 53 min
